# Reference: patent US20090318509A1, “Oxime Derivatives as Inhibitors of Macrophage Migration Inhibitory Factor” (priority 2006, published 2009)
# Entries after “also recorded” stand apart in the source; their conditions may differ. Like-named read-outs stand apart in the source and are kept apart here.
# What was measured:
# MIF [1] = biological target: T1, MIF (Homo sapiens, UniProt P14174); assay: MIF dopachrome tautomerase activity inhibition; assay type: biochemical; design: 1 μL of MIF solution (800-900 ng/mL)
# T1 sequence (P14174 2-115 limits assumed): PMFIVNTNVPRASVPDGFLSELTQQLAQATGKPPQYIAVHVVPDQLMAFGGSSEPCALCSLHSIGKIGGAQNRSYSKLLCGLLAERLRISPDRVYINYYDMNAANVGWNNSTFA
# Method: MIF tautomerase activity was measured by UV-Visible recording spectrophotometry (SHIMADZU, UV 1600U). A fresh stock solution of L-dopachrome methyl ester was prepared at 2.4 mM through oxidation of L3,4-dihydroxyphenylalanine methyl ester with sodium periodate. 1 μL of MIF solution (800-900 ng/mL) and 1 μL of a DMSO solution with various concentrations of the enzymatic inhibitor were added into a plastic cuvette (10 mm, 1.5 mL) containing 0.7 mL assay buffer (1× potassium phosphate, pH 7.2). The L-dopachrome methyl ester solution (0.3 mL) was added to the assay buffer mixture.
# [2] = system: TNF release by LPS-treated macrophages; details: in vitro; cited from earlier work
# endotoxemia and sepsis = details: intraperitoneal, 40 mg/kg; Al-Abed et al., 2005; cited from earlier work
# [3] = system: TNF release by LPS-stimulated human macrophages; assay: TNF release from LPS-stimulated macrophages; assay type: cell-based; details: FIG. 4
# Method: (§1) TNF-α production was then measured. The data shown are mean ±SD of triplicate wells in experiments that were repeated twice.
# It has been shown that the macrophage is an abundant source of MIF (Calandra et al., 1994), which is released after LPS stimulation. This led to an examination of the autocrine and paracrine activity of secreted MIF in vitro.
# [4] = preliminary acute toxicity screening; assay type: in vivo
# Text: Design of Cyc-Oxi-11. ISO-1, the pharmacological inhibitor of MIF, neutralizes exogenous and endogenous MIF in in vitro and in vivo models. This indicates the successful application of chemical approaches to antagonize MIF biological activities. Although ISO-1 has significant anti-inflammatory activity, development of better inhibitors was desired. […] Representative structures of the novel oxime scaffold are presented in Table I, with their IC50 of inhibiting MIF dopachrome tautomerase activity.
# antibacterial effect = details: preliminary studies
# CLP sepsis = assay: cecal ligation and puncture (CLP) sepsis survival; assay type: in vivo; details: mice, intraperitoneal, first injection 24 hours after CLP, further injections day 2 and 3, FIG. 6
# Method: FIG. 6 is a graph showing that Cyc-Oxi-II is protective even when given 24 h after the induction of sepsis.
# An additional two injections were given, on day 2 and day 3. Thirteen mice were tested.
# MIF [5] = biological target: T1, MIF; assay: MIF glucocorticoid-regulating (proinflammatory) activity in LPS-treated macrophages, TNF-α production; assay type: cell-based; design: dexamethasone plus MIF (3 nM purified native MIF); host or cells: added to monocyte-derived macrophages from human peripheral blood
# Method: as §1
# [6] = Table 1, left column pair, read-out: IC50 inhibition of MIF tautomerase activity
# [7] = Table 2, additional MIF inhibitors, read-out: IC50 MIF inhibitory activity in vitro
structure (smiles),measurement,setting,value
O=C(O/N=C/c1ccc(O)cc1)C1CCC1,IC50,MIF [1]; [6],12 µM
O=C(O/N=C/c1ccc(O)cc1)C1CCCC1,IC50,MIF [1]; [6],4.8 µM
"COC(=O)C[C@@H]1CC(c2ccc(O)cc2)=NO1 (racemic) [ISO-1, (S,R)-3-(4-hydroxyphenyl)-4,5-dihydro-5-isoxazole acetic acid methyl ester]",inhibition of TNF release,[2],60%
same,survival rate,endotoxemia and sepsis,increased the survival rate
CC(C)(C)OC(=O)NOC(=O)C1CCCCC1 [BKII-85],IC50,MIF [1]; [7],19.5 µM
CC(C)(C)OC(=O)NNC(=O)C1CCCCC1 [BKII-90],IC50,MIF [1]; [7],60 µM
CC(C)(C)OC(=O)NOC(=O)C1CC1 [BKII-91],IC50,MIF [1]; [7],1.9 µM
CC(C)(C)OC(=O)NOC(=O)C1CCC1 [BKII-92],IC50,MIF [1]; [7],0.37 µM
CC(C)(C)OC(=O)NOC(=O)C1CCCC1 [BKII-93],IC50,MIF [1]; [7],0.7 µM
CC(C)(C)OC(=O)NOC(=O)c1ccccc1 [BKII-98],IC50,MIF [1]; [7],0.23 µM
COc1ccc(C(=O)ONC(=O)OC(C)(C)C)cc1 [BKII-99],IC50,MIF [1]; [7],1.2 µM
CC(C)(C)OC(=O)NOC(=O)c1c(F)c(F)c(F)c(F)c1F [BKIII-6W],IC50,MIF [1]; [7],118 µM
CC(C)(C)OC(=O)NOC(=O)c1ccc(OC(=O)c2ccc(O)cc2)cc1 [BKIII-6Y],IC50,MIF [1]; [7],50 µM
CC(C)(C)OC(=O)NOC(=O)c1ccc(F)cc1 [BKIII-8W],IC50,MIF [1]; [7],0.27 µM
CC(C)(C)OC(=O)NOC(=O)c1ccc(Cl)cc1 [BKIII-8Y],IC50,MIF [1]; [7],0.87 µM
CC(C)(C)OC(=O)NOC(=O)c1ccc(C(F)(F)F)cc1 [BKIII-9W],IC50,MIF [1]; [7],69 µM
CC(C)(C)OC(=O)NOC(=O)c1ccc(I)cc1 [BKIII-9Y],IC50,MIF [1]; [7],1.7 µM
CC(C)(C)OC(=O)NOC(=O)c1ccc(Br)cc1 [BKIII-11Y],IC50,MIF [1]; [7],1.3 µM
COc1ccc(C(=O)ON=Cc2ccc(O)cc2)cc1 [Compound 4],IC50,MIF [1]; read-out: IC50 of MIF dopachrome tautomerase activity,1.1 µM
"COc1ccc(OC(=O)O/N=C/c2ccc(O)c(F)c2)cc1 [Compound 5, (E)-3-fluoro-4-hydroxybenzaldehyde O-4′-methoxyphenyl carbonyloxime]",improvement of inhibition of dopachrome tautomerase activity over parent compound,MIF [1]; mono-fluorinated analogue versus parent,63%
"O=C(O/N=C/c1ccc(O)cc1)C1CCCCC1 [Cyc-Oxi-11, (E)-4-hydroxybenzaldehyde O-cyclohexanecarbonyloxime]",inhibition of TNF release,[3],"inhibits TNF release in vitro; also recorded: in a dose-dependent manner, inhibits TNF release; also recorded: inhibits MIF induction of TNF release"
same,"acute toxicity, intraperitoneal injection",[4]; doses up to 100 mg/Kg,no evidence of toxicity
same,toxicity at high doses,"[4]; high doses, both in vitro and in vivo",lacks obvious toxicity
same,antibacterial effect,antibacterial effect,negative
same,deaths / protection after CLP,CLP sepsis,considerably reduced the deaths caused by CLP
same,deaths / protection after CLP,CLP sepsis; listed as Cyc-Oxi-II,protective
same,potency versus ISO-1 in MIF tautomerase inhibition,MIF [1]; relative to ISO-1,30 fold
same,inhibition of MIF-dependent interference with glucocorticoids,"MIF [5]; LPS-stimulated human macrophages, FIG. 3",significantly inhibited; also recorded: suppresses the ability of MIF to regulate glucocorticoids
same,potency versus ISO-1 as inhibitor of MIF proinflammatory activity in vitro,MIF [5]; relative to ISO-1,30 fold
